This note sets out measurements from ChEMBL document CHEMBL5357033, “Discovery of Diverse Sesquiterpenoids from Crossiella cryophila through Genome Mining and NMR Tracking” (J Nat Prod, 2024).

In one series the test system is MDA-MB-231. The series is described as follows: Anticancer activity against human MDA-MB-231 cells assessed as reduction in cell viability at 40 uM measured after 48 hrs by CCK-8 method relative to control. Type of series: functional. In general terms: Tetrazolium assays rely on reduction of a dye to a coloured formazan, in cell work by metabolically active cells.

For series [1], the system named is Staphylococcus aureus. The series is described as follows: Antimicrobial activity against methicillin resistant Staphylococcus aureus assessed as reduction in microbial growth by broth microdilution method. Format: functional. On the technique in general: Dilution methods test growth across graded concentrations, often in twofold steps.
In series [2] the test system is RAW264.7. The series is described as follows: Cytotoxicity against mouse RAW264.7 cells measured after 24hrs by CCK-8 method relative to control. Type of series: toxicity, cell-based. Set-up: concentration or dose not given beside the values. The note with it: raw264.7, 24 h.
The test system of another series is Pseudomonas syringae. Put plainly: Antimicrobial activity against Pseudomonas syringae ATCC-BAA-2502 assessed as reduction in microbial growth by broth microdilution method. Format: functional.
The subject of a further series is SW480. Put plainly: Anticancer activity against human SW480 cells assessed as reduction in cell viability at 40 uM measured after 48 hrs by CCK-8 method relative to control. Type of series: functional.
Another series deals with Klebsiella pneumoniae. Put plainly: Antimicrobial activity against Klebsiella pneumoniae W5 assessed as reduction in microbial growth by broth microdilution method. Format: functional.
A further series concerns Xanthomonas oryzae. Put plainly: Antimicrobial activity against Xanthomonas oryzae ATCC 35933 assessed as reduction in microbial growth by broth microdilution method. Format: functional.
Another series relates to MCF7. Put plainly: Anticancer activity against human MCF7 cells assessed as reduction in cell viability at 40 uM measured after 48 hrs by CCK-8 method relative to control. Format: functional.
The test system of a further series is Staphylococcus capitis. Put plainly: Antimicrobial activity against Staphylococcus capitis W7 assessed as reduction in microbial growth by broth microdilution method. Type of series: functional.
For the next series, the system named is Enterococcus. Put plainly: Antimicrobial activity against Vancomycin-resistant Enterococci assessed as reduction in microbial growth by broth microdilution method. Type of series: functional.
The test system of a further series is Bacillus subtilis. Put plainly: Antimicrobial activity against Bacillus subtilis ATCC 6051 assessed as reduction in microbial growth by broth microdilution method. Format: functional.
The test system of a further series is Paracidovorax avenae. The series is described as follows: Antimicrobial activity against Acidovorax avenae ATCC 19307 assessed as reduction in microbial growth by broth microdilution method. Type of series: functional.
A further series relates to Micrococcus luteus. The series is described as follows: Antimicrobial activity against Micrococcus luteus ATCC 4685 assessed as reduction in microbial growth by broth microdilution method. Type of series: functional.
For series [3], the system named is RAW264.7. Put plainly: Antiinflammatory activity in mouse RAW264.7 assessed as reduction in LPS-induced NO production incubated for 24 hrs by Griess method relative to control. Type of series: functional. On the set-up: concentration or dose not given beside the values. (Nitrite, measured by Griess reagent, commonly stands in for NO production.)
In another series the test system is Escherichia coli. Put plainly: Antimicrobial activity against Escherichia coli CGMCC 1.3344 assessed as reduction in microbial growth by broth microdilution method. Format: functional.
Series [4] relates to Staphylococcus aureus. The series is described as follows: Antimicrobial activity against Staphylococcus aureus LV-B1 assessed as reduction in microbial growth by broth microdilution method. Format: functional.
A further series has as its system A549. Put plainly: Anticancer activity against human A549 cells assessed as reduction in cell viability at 40 uM measured after 48 hrs by CCK-8 method relative to control. Format: functional.
For the next series, the system named is HepG2. Put plainly: Anticancer activity against human HepG2 cells assessed as reduction in cell viability at 40 uM measured after 48 hrs by CCK-8 method relative to control. Type of series: functional.
For the next series, the system named is Shigella sonnei. Put plainly: Antimicrobial activity against Shigella sonnei ZD12 assessed as reduction in microbial growth by broth microdilution method. Format: functional.

For orientation: MIC means the lowest concentration that inhibits growth of the organism. For `C[C@H]1CC[C@@H](O)[C@]2(C)CC[C@@H](C(C)(C)O)[C@H](O)[C@@H]12`, the Activity was -2.4% in the series with MDA-MB-231; 88.18% in the series with RAW264.7 [2]; 10.33% in the series with SW480; 5.53% with MCF7; 3.3% in the series with RAW264.7 [3]; 0.97% in the series on A549. Further, in the series with HepG2, the Activity is listed as -2.3%. Moreover, the MIC with Staphylococcus aureus [1], in the series with Pseudomonas syringae, in the series on Klebsiella pneumoniae, in the series on Xanthomonas oryzae, in the series on Staphylococcus capitis and in the series on Enterococcus was above 128 µg/mL throughout. The MIC in the series with Bacillus subtilis, in the series with Paracidovorax avenae, with Micrococcus luteus, in the series on Escherichia coli, in the series on Staphylococcus aureus [4] and in the series with Shigella sonnei was above 128 µg/mL each time.

Consider `C/C1=C\CC/C(C=O)=C\[C@H]2[C@H](C[C@H]1O)C2(C)C`, for which the Activity in the series with MDA-MB-231 is reported as -11.44%; in the series on RAW264.7 [2] it was 89.61%; with SW480 it was -28.68%; with MCF7, 1.32%; in the series on RAW264.7 [3], 1.33%; in the series with A549 it was -2.39%. Further, the Activity in the series on HepG2 was -8.84%. Further, the MIC in the series with Staphylococcus aureus [1], in the series with Pseudomonas syringae, with Klebsiella pneumoniae, in the series on Xanthomonas oryzae, in the series on Staphylococcus capitis and in the series on Enterococcus was above 128 µg/mL in each case. Also, the MIC in the series with Bacillus subtilis, with Paracidovorax avenae, with Micrococcus luteus, with Escherichia coli, in the series with Staphylococcus aureus [4] and with Shigella sonnei was above 128 µg/mL each time.

Take `C[C@H]1C[C@H](O)[C@@H]2[C@H]3[C@H]1OC(C)(C)[C@@H]3CC[C@@]2(C)O`: the Activity in the series with MDA-MB-231 was 1.66%; with RAW264.7 [2] it was 84.88%; in the series with SW480, -5.32%; in the series with MCF7, 8.24%; with RAW264.7 [3] it was 0.67%; in the series with A549, 0.07%. Moreover, in the series with HepG2, the Activity is listed as -8.63%. Moreover, the MIC with Staphylococcus aureus [1], with Pseudomonas syringae, in the series with Klebsiella pneumoniae, in the series with Xanthomonas oryzae, in the series with Staphylococcus capitis and with Enterococcus was above 128 µg/mL throughout. Moreover, the MIC in the series on Bacillus subtilis, in the series with Paracidovorax avenae, with Micrococcus luteus, with Escherichia coli, in the series with Staphylococcus aureus [4] and in the series on Shigella sonnei was above 128 µg/mL in each case.

Consider `CC1=C[C@@H]2[C@@H](C(C)C)CC[C@@](C)(O)[C@@H]2C[C@@H]1O`, for which the Activity in the series with MDA-MB-231 was -7.21%; in the series with RAW264.7 [2], 82.75%; in the series with SW480, -7.85%; with MCF7, 6.01%; with RAW264.7 [3], -1.33%; in the series on A549 it was 0.28%. The Activity in the series with HepG2 is on record as -1.38%. For the same compound, the MIC in the series on Staphylococcus aureus [1], in the series on Pseudomonas syringae, in the series with Klebsiella pneumoniae, in the series with Xanthomonas oryzae, in the series on Staphylococcus capitis and in the series on Enterococcus was above 128 µg/mL throughout. For the same compound, the MIC in the series with Bacillus subtilis, in the series with Paracidovorax avenae, with Micrococcus luteus, in the series with Escherichia coli, in the series with Staphylococcus aureus [4] and in the series with Shigella sonnei was above 128 µg/mL in each case.

With `CC1=C[C@@H]2[C@@H](C(C)C)CC[C@@](C)(O)[C@@H]2CC1=O`, the Activity in the series on MDA-MB-231 is on record as 20.55%; in the series on RAW264.7 [2], 82.62%; in the series with SW480, -22.26%; in the series on MCF7, 13.45%; in the series on RAW264.7 [3], -11.3%; with A549, 8.55%. The Activity in the series on HepG2 is given as -9.79%. Also, the MIC with Staphylococcus aureus [1], with Pseudomonas syringae, with Klebsiella pneumoniae, in the series with Xanthomonas oryzae, in the series with Staphylococcus capitis and in the series on Enterococcus was above 128 µg/mL each time. In addition, the MIC with Bacillus subtilis, with Paracidovorax avenae, in the series on Micrococcus luteus, in the series with Escherichia coli, in the series on Staphylococcus aureus [4] and in the series with Shigella sonnei was above 128 µg/mL throughout.

In the case of `C[C@H]1CC[C@@H]2[C@H]3[C@H]1OC(C)(C)[C@@H]3CC[C@@]2(C)O` (relative stereo), the Activity is on record as 4.18% in the series on MDA-MB-231; 94.77% in the series on RAW264.7 [2]; -11.92% with SW480; 14.7% with MCF7; -7.88% in the series on RAW264.7 [3]; 12.03% with A549. Further, in the series with HepG2, the Activity is on record as -8.24%. Also, the MIC in the series with Staphylococcus aureus [1], with Pseudomonas syringae, with Klebsiella pneumoniae, in the series with Xanthomonas oryzae, in the series with Staphylococcus capitis and with Enterococcus was above 128 µg/mL in each case. The MIC in the series with Bacillus subtilis, in the series with Paracidovorax avenae, in the series with Micrococcus luteus, in the series with Escherichia coli, in the series with Staphylococcus aureus [4] and with Shigella sonnei was above 128 µg/mL each time.

Turning to `CC1=C[C@H]2[C@H](C(C)C)CC[C@@](C)(O)[C@H]2C[C@H]1O`, the Activity is given as -8.69% in the series on MDA-MB-231; 87.41% in the series with RAW264.7 [2]; 4.58% with SW480; 12.99% in the series on MCF7; -6.33% with RAW264.7 [3]; 5.64% in the series with A549. In addition, the Activity with HepG2 is -5.25%. The MIC in the series on Staphylococcus aureus [1], in the series on Pseudomonas syringae, in the series with Klebsiella pneumoniae, in the series with Xanthomonas oryzae, with Staphylococcus capitis and in the series with Enterococcus was above 128 µg/mL each time. Besides, the MIC in the series on Bacillus subtilis, in the series on Paracidovorax avenae, in the series with Micrococcus luteus, with Escherichia coli, in the series with Staphylococcus aureus [4] and in the series with Shigella sonnei was above 128 µg/mL in each case.

`CN(C)[C@@H]1C(O)=C(C(N)=O)C(=O)[C@@]2(O)C(O)=C3C(=O)c4c(O)cccc4[C@@](C)(O)[C@H]3C[C@@H]12` [TETRACYCLINE]: the MIC in the series with Staphylococcus aureus [1] was 4 µg/mL; in the series on Pseudomonas syringae, above 128 µg/mL; in the series with Klebsiella pneumoniae, above 128 µg/mL; in the series with Xanthomonas oryzae, 8 µg/mL; with Staphylococcus capitis, 4 µg/mL; with Enterococcus, 2 µg/mL. Further, the MIC amounted to 2 µg/mL with Bacillus subtilis; 4 µg/mL in the series with Paracidovorax avenae; 2 µg/mL in the series on Micrococcus luteus; 2 µg/mL in the series with Escherichia coli; 0.5 µg/mL in the series with Staphylococcus aureus [4]; 8 µg/mL in the series on Shigella sonnei.

For `C[C@@H]1C(=O)C[C@@H]2[C@H]3[C@H]1OC(C)(C)[C@H]3CC[C@@]2(C)O`, the Activity in the series on MDA-MB-231 is listed as -3.76%; in the series on RAW264.7 [2] it was 91.87%; in the series on SW480 it was 13.67%; in the series on MCF7, 9.07%; with RAW264.7 [3], -1.87%; with A549, 0.67%. Besides, the Activity with HepG2 is -1.81%. Besides, the MIC in the series with Staphylococcus aureus [1], in the series on Pseudomonas syringae, in the series on Klebsiella pneumoniae, with Xanthomonas oryzae, in the series on Staphylococcus capitis and in the series with Enterococcus was above 128 µg/mL each time. The MIC in the series on Bacillus subtilis, in the series with Paracidovorax avenae, with Micrococcus luteus, in the series with Escherichia coli, with Staphylococcus aureus [4] and in the series with Shigella sonnei was above 128 µg/mL throughout.

Consider `CC1(C)[C@H]2/C=C(/C=O)CC[C@@H]3O[C@@]3(C)CC[C@@H]21`, for which the Activity with MDA-MB-231 is -2.33%; in the series on RAW264.7 [2], 81.51%; in the series on SW480, -21.6%; in the series with MCF7 it was 16.05%; with RAW264.7 [3] it was -2.46%; with A549 it was 2.4%. The Activity in the series on HepG2 was -4.51%. Further, the MIC in the series with Staphylococcus aureus [1], with Pseudomonas syringae, in the series with Klebsiella pneumoniae, with Xanthomonas oryzae, with Staphylococcus capitis and in the series on Enterococcus was above 128 µg/mL each time. In addition, the MIC with Bacillus subtilis, with Paracidovorax avenae, in the series on Micrococcus luteus, in the series with Escherichia coli, in the series on Staphylococcus aureus [4] and in the series with Shigella sonnei was above 128 µg/mL each time.
